One series has as its target T1, c-Met (Homo sapiens, UniProt P08581).
T1 construct: purchased Abnova KA0055
Briefly: c-Met kinase activity assay (Met Kinase Assay/Inhibitor Screening Kit). It counts as biochemical. Particulars: cell-free kinase activity.

The nature of series [1]: Pharmacokinetic study in male ICR mice. Particulars: mouse, plasma, po 10 mg/kg. It counts as in vivo. Here is the method:
The male ICR mice (25–30 g, 7–8 weeks of age) were purchased from Koatech Co. (Pyeontak, Kyonggi-do, Korea). Animals were fed with free access to standard chow diet and water. All animal use and care followed the guidelines approved by the Institutional Animal Care and Use Committee of Flow Sciences.INC. (Approval No.: NDDC PK 2018 076 01-DFX117-(4364)). Animals were acclimatized for 1 week at of 23–25 °C temperature, 40–70% relative humidity and 12 h light/12 h dark cycle before study. […] Approximately 80 µL of blood samples were collected into BD Microtainer plasma separator tubes at times 0.25, 0.5, 1.0, 2.0, 4.0, 6.0 and 8.0 h through the saphenous vein over […] post dosing. Blood samples were centrifuged at 15,000 rpm for 5 min and stored in a freezer until analysis. Protein precipitation was conducted on 15 µL of plasma samples using three volumes of acetonitrile containing carbamazepine as an internal analytical standard. After centrifugation, the supernatant was analyzed on a Nexera XR system (Shimadzu, Japan) system coupled with TSQ vantage triple quadruple (Thermo Fisher Scientific, Waltham, MA, USA) system. Chromatographic separation was performed on a Kinetex XB-C18 column (2.1 × 100 mm, 2.6 μm, particle size; Phenomenex, CA, USA) running a linear gradient of solvent A (0.1% formic acid in deionized water) and B (0.1% formic acid in acetonitrile). Detection of the analyte ions was performed in a positive MRM mode, monitoring the following precursor >product ion transitions: m/z 573.1 > 417.8. Analytical data were processed using MassHunter B04.01 (Agilent Korea, Seoul, Korea). Pharmacokinetic parameters were calculated via non-compartmental analysis of the plasma concentration-time profiles using PK Solver.

Series [2] relates to A549 cells. Description: Colony formation, A549. It counts as cell-based, human. Particulars: A549, 72 h treatment then 10 days culture. The text has this:
(§1) The cells were then washed once with PBS and continue to culture with full-growth medium for 10 days, change the culture medium to fresh ones every three days. Cells were stained with 0.1% crystal violet after fixing with 100% methanol.

A short description of series [3]: Cell viability (SRB assay), normal MRC-5. The conditions noted are these: human, normal cell line. It is filed as cell-based.
Method: (§4) Cell viability assay was performed using SRB assay as described previously [22].
The next series relates to phospho-Met. Description: Phospho-receptor tyrosine kinase array, A549. It is filed as cell-based, human. Particulars: A549 cells, 0.2 μM. Here is the method:
Phosphorylated RTKs were measured with the Human Phospho-RTK Array Kit (ARY001B) from R&D Systems (Minneapolis, MN, USA) according to the manufacturer’s instructions.

For series [4], the system named is NCI-H1975 cells. Description: Annexin V-FITC/PI apoptosis assay, NCI-H1975. It is filed as cell-based, human. Particulars: NCI-H1975, 0.4 μM, 48 h; control 4.15%. As for the experimental part: (§2) Annexin FITC/PI assay was performed as described previously. Cell apoptosis was evaluated using Annexin V FITC/PI apoptosis detection kit (BD Biosciences, San Jose, CA, USA) according to the manufacturer’s instruction. […] Wash the cells with cold PBS buffer before staining with 5 μL of Annexin V-FITC and 5 μL of propidium iodide in the 500 μL 1× binding buffer. Finally, the stained cells were incubated for 15 min at room temperature in the dark before analyzing with FACS Calibur flow cytometer, (Becton Dickinson, San Jose, CA, USA).

Series [5] relates to A549 cells. Description: Annexin V-FITC/PI apoptosis assay, A549. Particulars: A549, 0.4 μM, 48 h; control 6.09%. It is filed as cell-based, human. Here is the method:
as §2

Another series deals with A549 xenograft. Briefly: A549 nude mouse xenograft model. It is filed as in vivo. Here is the method:
(§3) All animal experiments were followed the guidelines approved by the Seoul National University Institutional Animal Care and Use Committee (IACUC permission number SNU-170103-2-1). […]. Drug treatment started when their tumor volumes reached to 80–100 mm^3. […]. Body weight and tumor size were measured three times per week. The tumor size was calculated according to the formula V = 0.5 × length × width^2.

For series [6], the system named is NCI-H1975 cells. Description: Colony formation, NCI-H1975. The conditions noted are these: NCI-H1975, 72 h treatment then 10 days culture. It is filed as cell-based, human.
Source text: as §1

The subject of series [7] is A549 cells. Description: Cell viability (SRB assay), A549. It counts as cell-based, human.
Method: as §4
The subject of a further series is NCI-H1975 xenograft. Description: NCI-H1975 nude mouse xenograft model. It counts as in vivo. As for the experimental part:
as §3

Series [8] deals with NCI-H1975 cells. Description: Cell viability (SRB assay), NCI-H1975. It is filed as cell-based, human.
Method: as §4

T1 sequence (P08581 25-1390): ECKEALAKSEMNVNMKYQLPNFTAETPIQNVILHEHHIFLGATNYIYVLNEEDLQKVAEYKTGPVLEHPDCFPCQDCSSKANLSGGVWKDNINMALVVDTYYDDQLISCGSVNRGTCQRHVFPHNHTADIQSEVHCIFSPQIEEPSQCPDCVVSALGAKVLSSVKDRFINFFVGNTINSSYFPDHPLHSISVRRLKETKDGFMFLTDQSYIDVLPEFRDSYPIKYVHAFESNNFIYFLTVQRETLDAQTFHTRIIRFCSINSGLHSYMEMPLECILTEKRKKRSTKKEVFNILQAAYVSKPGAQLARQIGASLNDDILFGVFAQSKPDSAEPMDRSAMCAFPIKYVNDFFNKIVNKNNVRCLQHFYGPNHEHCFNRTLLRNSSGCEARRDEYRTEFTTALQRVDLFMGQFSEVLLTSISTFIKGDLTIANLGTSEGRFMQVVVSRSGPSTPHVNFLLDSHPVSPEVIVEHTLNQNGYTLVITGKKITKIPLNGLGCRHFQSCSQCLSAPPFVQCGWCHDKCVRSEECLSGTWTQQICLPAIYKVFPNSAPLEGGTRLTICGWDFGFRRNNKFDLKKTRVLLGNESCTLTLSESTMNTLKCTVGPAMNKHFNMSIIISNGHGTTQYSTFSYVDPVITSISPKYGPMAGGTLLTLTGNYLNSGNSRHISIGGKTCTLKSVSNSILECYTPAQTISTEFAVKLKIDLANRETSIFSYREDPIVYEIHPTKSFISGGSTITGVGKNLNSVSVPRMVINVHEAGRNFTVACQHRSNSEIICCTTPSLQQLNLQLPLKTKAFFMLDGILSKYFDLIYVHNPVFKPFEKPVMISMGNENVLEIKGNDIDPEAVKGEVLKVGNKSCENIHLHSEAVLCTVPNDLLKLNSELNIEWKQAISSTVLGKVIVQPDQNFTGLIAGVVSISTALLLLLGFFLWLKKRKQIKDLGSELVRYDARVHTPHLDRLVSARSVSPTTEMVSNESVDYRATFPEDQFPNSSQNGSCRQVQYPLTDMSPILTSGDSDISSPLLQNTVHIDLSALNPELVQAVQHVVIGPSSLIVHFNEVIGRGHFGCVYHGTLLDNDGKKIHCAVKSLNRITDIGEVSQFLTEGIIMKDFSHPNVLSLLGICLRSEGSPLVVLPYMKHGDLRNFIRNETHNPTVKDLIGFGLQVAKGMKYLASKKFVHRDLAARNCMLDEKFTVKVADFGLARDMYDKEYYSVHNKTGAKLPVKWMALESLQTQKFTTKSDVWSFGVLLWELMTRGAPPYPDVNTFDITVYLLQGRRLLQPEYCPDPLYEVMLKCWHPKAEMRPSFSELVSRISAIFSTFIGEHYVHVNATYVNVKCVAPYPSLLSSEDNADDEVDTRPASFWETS

In the case of `COc1ncc(-c2ccc3ncc(C(=O)NCCN4CCOCC4)n3c2)cc1NS(=O)(=O)c1ccc(F)cc1F` [DFX117, 6-(5-(2,4-difluorophenylsulfonamido)-6-methoxypyridin-3-yl)-N-(2-morpholinoethyl) imidazo[1,2-a]pyridine-3-carboxamide], the IC50 was 17.1 nM against c-Met and 2890 nM in series [3]. Further, the AUC in series [1] stood at 3340 ng·h/mL. Further, in series [1], the Cmax amounted to 4500 ng/mL. For the same molecule, the Tmax in series [1] is 0.3 h. In addition, the half-life in series [1] is 2.1 h. Also, the MRT inf in [1] (read-out: MRTinf_obs) was determined as 2.2 h. The Colony formation entry with A549 cells [2] and in the series with NCI-H1975 cells [6] was “significantly inhibited” each time. The “Phospho-Met level (phospho-RTK array)” value with phospho-Met was “markedly suppressed”. In addition, the figures for the “Population of apoptotic cells (Annexin V positive)” value with NCI-H1975 cells [4] and with A549 cells [5] were 32.75% and 26.84%, respectively. For the same molecule, the “Overt toxicity or body weight change” value in the series with A549 xenograft (A549 xenograft, 5, 10 or 20 mg/kg orally daily for 23 days) was “No overt toxicity or body weight change was observed”; in the series with NCI-H1975 xenograft (10 or 20 mg/kg orally daily for 23 days), “No overt toxicity or body weight change was observed”. The “Excised tumor weights on the termination day” value in the series on A549 xenograft (A549 xenograft, oral daily for 23 days) was “significantly inhibited”. The “Growth inhibitory activity compared with HS-173” value with A549 cells [7] and in the series on NCI-H1975 cells [8] was “superior to that of HS-173” in each case. The Tumor weights entry in the series with NCI-H1975 xenograft (oral daily for 23 days) was “significantly inhibited”.

These data come from publication PMC6562471 (Cancers, 2019).
